Source: US20260191998A1, “INDOLE PHTHALOCYANINE COMPOUND, PREPARATION METHOD THEREFOR, AND USE THEREOF IN TUMOR DIAGNOSIS IMAGING” (JIANGSU YAHONG MEDITECH CO., LTD., priority 2022, published 2026)
Where a name gives a salt, the structure may show the parent alone.

Assays:
RT112 tumor [1] = assay: Tumor/background ratio in subcutaneous RT112 tumor model mice; format: in vivo; conditions: 2 mpk intraperitoneal, 48 hours after injection
From the text: The subcutaneous tumor model mice inoculated with RT112 tumor were selected. Each compound was administrated at a dose of 2 mpk, and intraperitoneally injected.

[2] = MRC5 proliferation test (CellTiter-Glo); format: cell-based; conditions: human, MRC5 cells (normal cells), 3 days incubation, read-out: MRC5 (IC50, nM), inhibitory effect on proliferation of normal cells
From the text: • MRC5 (ATCC; Cat. No.: CCL-171)
• Culture medium EMEM (ATCC, 30-2003) • Fetal bovine serum (Gibco, 10091148) • Penicillin-streptomycin double antibody (Gibco, S110JV) • DPBS (Gibco, 14190-144) • CellTiter-Glo® assay kit (Promega, G7573) • Trypsin (0.25%) (Gibco, 25200-056) • DMSO (Sigma, D2650)
• Biosafety cabinet (AIRTECH, BSC-1300A II) • Automated cell counter (Life Technologies, countess II) • Multifunctional microplate reader (Biotek, H1FM) • Shaker (Hangzhou Allsheng Instruments Co., Ltd., OS-100) • XLFIT 5.3 (Shanghai Inforstack Co., Ltd.)
For this test method, the following experiment was performed in a biosafety cabinet with the specific steps as follows. • (1) Cells were seeded in a […] (in which the culture medium was EMEM). One day later, the previous culture medium EMEM was poured off, and 5 mL of DPBS was added to wash the cells. Then DPBS was pipetted and discarded. An appropriate amount of trypsin was then added. The plate was placed in a 5% CO2 cell incubator at 37° C. to digestion for about 2 to 5 minutes, and then taken out. New culture medium EMEM was added. The cells were pipetted up and down to resuspend evenly. The cells were then counted by an automated cell counter. • (2) Cells were seeded in columns 1 to 11 of a 96-well plate (Corning, Cat. No. 3610) at a density of 3000 cells per well in 100 μL of culture medium EMEM, and 100 μL of culture medium EMEM free of cells was added into column 12 of the wells. Then, the plate was placed in the 5% CO2 incubator at 37° C. for 24 hours. • (3) Next, the compound of the present invention was 2-fold serially diluted into 8 dose points starting at 10 μM. 10 μL of the serially diluted compound was pipetted and added to 100 μL of cells in columns 1 to 10, and 10 μL of the culture medium EMEM containing 2% DMSO was added to both columns 11 and 12. The plate was placed in the 5% CO2 incubator at 37° C. and incubated for 3 days (Note: column 11 was used as a MAX well with cells but without the compound; column 12 was used as a MIN well without both cell and compound). • (4) The cell viability detection reagent in the above CellTiter-Glo® assay kit was then added to the 96-well plate at 50 μL per well according to the instruction, and shaken on a shaker in dark for 5 to 10 minutes. The cell viability was then measured using a multifunctional microplate reader. Finally, the inhibition of the compound of the present invention on cell proliferation was plotted by XLFIT software, and the half inhibitory concentration, IC50 value of the compound of the present invention was calculated therefrom.

hERG channels = hERG channels (Homo sapiens, UniProt Q12809); assay: hERG whole-cell patch clamp in HEK 293 cells stably expressing hERG; format: cell-based; conditions: HEK 293 stably expressing hERG, tail current
Protocol: The HEK 293 cell line (K1236) stably expressing hERG was purchased from Invitrogen. Cells were cultured in 85% DMEM, 10% dialyzed FBS, 0.1 mM NEAA, 25 mM HEPES, 100 U/mL penicillin-streptomycin, 5 μg/mL blasticidin and 400 μg/mL geneticin. Cells were split using TrypLE™ about three times a week, and maintained at a confluence of about 40% to about 80%. Before measurement, cells were cultured at a density of 5×10^5 in a 6 cm culture dish and induced with 1 μg/mL doxycycline for 48 hours.
Extracellular solution (mM): 132 NaCl, 4 KCl, […], 0.5 MgCl2, 11.1 glucose, 10 HEPES (pH 7.35 adjusted with NaOH);
Intercellular solution (mM): 140 KCl, 2 MgCl2, 10 EGTA, 10 HEPES, 5 MgATP (pH 7.35 adjusted with KOH).
The test compounds were formulated in DMSO to prepare a stock solution with a final concentration of 10 mM.
Then, the stock solution of each compound was diluted with DMSO in a 1:3 serial dilution to prepare five intermediate solutions with concentrations of 3, 1, 0.33, 0.12, 0.04 mM or 3.33, 1.11, 0.37, 0.12 mM, respectively.
Before testing, the final working solutions were prepared by diluting the intermediate solutions 1000 times with the extracellular solution. The concentration of DMSO in the working solutions was within a range around 0.1%.
The working solutions at five different concentrations of 3, 1, 0.33, 0.12 and 0.04 μM were used to determine the potential inhibition effect of the compounds on hERG channels and to fit concentration-response curves and calculate IC50.
The coverslip was removed from the cell culture dish and placed on a microscope stage.
A 10× objective was used to locate cells to be observed. An electrode tip was located under the microscope using the 10× objective by focusing above the plane of the cells. Once the tip was in focus, the electrode was advanced downward towards the cells under rough control of the manipulator, while the objective was moved so as to keep the tip in focus.
When the electrode was directly over a cell, the objective was switched to a 40× objective and fine control of the manipulator was used to enable to gradually approach the cell surface.
With gentle suction through a side port of an electrode holder, a giga-ohm seal was formed.
Cfast was used to eliminate the capacitive current consistent with the voltage step. Brief and strong suction was applied repeatedly until the membrane patch ruptured and the whole-cell configuration was obtained.
At this point, membrane potential was set to −60 mV in order to ensure that hERG channels were not open. Then, Cslow on the amplifier was used to remove the spikes of capacitive current.
Holding potential was set to −90 mV for 500 ms. Current was recorded at 20 kHz and filtering was carried out at 10 kHz. Leak current was tested at −80 mV for 500 ms.
The hERG current was elicited by depolarizing at +30 mV for 4.8 seconds, and then the voltage was restored to −50 mV for 5.2 seconds to remove the inactivation and observe the deactivating tail current. The maximum of tail current size was used to determine hERG current amplitude.
Current was recorded for 120 seconds to evaluate the current stability. Only stable cells with recording parameters above thresholds were used for drug administrations.
Firstly, vehicle control was applied to the cells to establish the baseline. […] The hERG current in the presence of the test compound was recorded for about 5 minutes to reach a steady state, and then 5 sweeps were captured. For dose-response testing, multiple compounds were applied to the cells cumulatively from low to high concentrations (multiple compounds were detected simultaneously). The positive control, Dofetilide at a concentration of 150 nM, was also applied to each cell post hERG current measurement at the highest concentration of the test compound, which was used as an internal low control for normalization of percentage inhibition. […]

[3] = Kinetic solubility in phosphate buffered saline (HPLC); format: physicochemical; conditions: phosphate buffered saline (PBS), aqueous buffer, kinetic from dmso stock, 25° C., shaken 2 hours, from 10 mM DMSO stock
Protocol: The compounds were weighed in an appropriate amount and dissolved in DMSO to prepare a 10 mM stock solution. 30 μL of the stock solution was taken and 970 μL of phosphate buffered saline solution (PBS) was added thereto. The solution was shaken at 25° C. on a thermostatic mixer for 2 hours, and centrifuged at 12000 rpm for 10 minutes. The supernatant was taken, and the kinetic solubility of each compound in phosphate buffered saline solution (PBS) was determined by Waters Acquity Arc HPLC.

[4] = UV-VIS absorption spectra (optical property test); format: physicochemical; conditions: 10 μM, DMSO solution; for Absorbance × 10^4: at maximum absorption peak
Protocol: The UV-VIS absorption spectra of the compounds (10 μM, DMSO solution) were detected using Shimadzu UV2600 spectrophotometer, and the maximum absorption peak and absorbance of each compound were obtained.

[5] = tested on: human bladder cancer cell line UM-UC-3; assay: In vitro imaging effect test with addition of BSP, UM-UC-3; format: cell-based; conditions: 250 μM BSP, compound 1-20 μM with surfactin 1:5, 30 minutes
Protocol: UM-UC-3 (1.5×10^4/well) were cultured in EMEM medium (containing 10% fetal bovine serum (FBS) and 1% antibiotics (100 U/mL penicillin and 100 U/mL streptomycin)) and seeded in a 96-well plate in advance. The plate was cultured in a 5% CO2 cell culture incubator at 37° C. overnight. The following day, the culture medium was sucked away, and 250 μM of BSP was added to the test wells and preconditioned for 10 minutes, followed by addition of the culture medium containing an appropriate concentration (1-20 μM) of the compound and surfactin (the molar ratio of the test compound to the surfactin being 1:5) with or without 250 μM of BSP, and then incubated for 30 minutes. The cells were rinsed three times with PBS solution, and the near-infrared fluorescence intensity in the bladder cancer cells was observed using an integrated fluorescence microscopic imaging system from Keyence. The conditions for near-infrared photography were Ex=775/50 nm and Em=845/55 nm.

RT112 tumor [6] = conditions: 2 mg/kg or 0.4 mg/kg intraperitoneal, 48 hours after injection
Protocol: All animal experiments were conducted exactly in accordance with the guidelines for the care and use of animals issued by the regional animal committee. A mouse model of xenograft RT112 tumor was established by subcutaneous injection of RT112 cell suspension (2×10^6 cells/mouse, 0.1 ml PBS) into the upper right limb of 8- to 10-week-old BALB/C female nude mice (20 to 25 g). BABL/c nude mice (15 to 20 g) were purchased from Beijing Vital River Laboratory Animal Technology Co., Ltd. For in vivo near-infrared fluorescence (NIRF) imaging, the RT112 tumor-bearing mice were intraperitoneally injected with different doses of free compounds (2 mg/kg or 0.4 mg/kg), respectively. At 48 hours after injection, near-infrared imaging was performed using an IVIS Lumina spectroscopic imaging system (excitation/emission, 780/845 nm).

Sequence of hERG channels (Q12809 whole entry): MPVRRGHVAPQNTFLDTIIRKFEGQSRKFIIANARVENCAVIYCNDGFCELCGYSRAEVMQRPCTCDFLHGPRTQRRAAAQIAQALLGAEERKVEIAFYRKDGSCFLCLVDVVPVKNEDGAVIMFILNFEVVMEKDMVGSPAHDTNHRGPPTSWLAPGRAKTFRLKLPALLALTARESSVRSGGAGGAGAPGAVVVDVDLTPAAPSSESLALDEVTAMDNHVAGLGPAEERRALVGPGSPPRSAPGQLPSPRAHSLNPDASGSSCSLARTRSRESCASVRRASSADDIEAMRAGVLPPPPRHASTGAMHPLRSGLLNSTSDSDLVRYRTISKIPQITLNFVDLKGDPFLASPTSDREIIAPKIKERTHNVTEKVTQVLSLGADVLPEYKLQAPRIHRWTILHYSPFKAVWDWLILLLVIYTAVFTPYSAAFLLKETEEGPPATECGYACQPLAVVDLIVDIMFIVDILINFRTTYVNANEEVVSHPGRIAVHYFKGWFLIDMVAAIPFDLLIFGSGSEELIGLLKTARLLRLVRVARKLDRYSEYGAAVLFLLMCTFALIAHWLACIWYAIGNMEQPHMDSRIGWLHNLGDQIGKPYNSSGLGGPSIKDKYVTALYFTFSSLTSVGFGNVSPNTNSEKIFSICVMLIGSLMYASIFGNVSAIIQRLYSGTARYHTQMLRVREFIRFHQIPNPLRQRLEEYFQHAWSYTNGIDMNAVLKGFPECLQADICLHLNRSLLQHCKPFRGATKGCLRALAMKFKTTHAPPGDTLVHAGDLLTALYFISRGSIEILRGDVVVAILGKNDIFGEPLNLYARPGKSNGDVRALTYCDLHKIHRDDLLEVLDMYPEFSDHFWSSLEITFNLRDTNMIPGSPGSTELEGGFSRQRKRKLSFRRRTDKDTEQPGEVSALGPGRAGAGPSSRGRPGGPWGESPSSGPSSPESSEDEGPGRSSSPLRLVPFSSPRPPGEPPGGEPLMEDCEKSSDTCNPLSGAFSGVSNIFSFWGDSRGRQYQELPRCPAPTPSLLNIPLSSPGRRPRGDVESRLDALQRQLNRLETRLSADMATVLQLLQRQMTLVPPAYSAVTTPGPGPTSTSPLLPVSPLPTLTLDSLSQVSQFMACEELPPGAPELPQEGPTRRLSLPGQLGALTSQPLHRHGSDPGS

SMILES | Tumor/background ratio (RT112 tumor [1]) | IC50 at 3 days [2] | IC50 (hERG channels) | solubility kinetic at 2 h [3] | Absorption peak [4] | Absorbance × 10^4 [4] | Uptake by UM-UC-3 with or without BSP [5] | Enrichment at the tumor sites (NIR fluorescence) (RT112 tumor [6])
C[N+]1=C(/C=C/C2=C(Cl)C(=C/C=C3/N(CCOCCC(=O)Oc4ccccc4)c4ccccc4C3(C)C)/CCC2)C(C)(C)c2ccccc21.[Cl-] [Example 95] | 2.8 | > 10000 nM | 980 nM | 99 µg/mL | 793.5 nm | 2.41 |  | 
CC[N+]1=C(/C=C/C2=C(Cl)C(=C/C=C3/N(CCOCC(=O)Oc4ccccc4)c4ccccc4C3(C)C)/CCC2)C(C)(C)c2ccccc21 [Example 8, 2-((E)-2-((E)-2-chloro-3-(2-((E)-3,3-dimethyl-1-(2-(2-oxo-2-phenoxyethoxy)ethyl)indolin-2-ylidene)ethenyl)cyclohex-1-en-1-yl)ethenyl)-1-ethyl-3,3-dimethyl-3H-indol-1-ium Trifluoroacetate] |  |  |  |  | 794.5 nm | 1.96 | may be weakened or enhanced by BSP | specifically enriched at the tumor sites
CN(C)C1CC(/C=C/C2=[N+](C)c3ccccc3C2(C)C)=C(Cl)C(=C/C=C2/N(CCCCCC(=O)O)c3ccccc3C2(C)C)/C1 (stereo not shown) [Example 87] | 3.3 | > 10000 nM | 1420 nM | 38 µg/mL | 785 nm | 1.91 |  | 
COCCOCCOCCN1/C(=C/C=C2\CCCC(/C=C/C3=[N+](CCOCCOCCC(=O)O)c4ccccc4C3(C)C)=C2Cl)C(C)(C)c2ccccc21 [Example 70] | 2.7 | > 10000 nM | 568 nM | > 250 µg/mL | 796.5 nm | 2.09 |  | 
COCCOCCN1/C(=C/C=C2\CCCC(/C=C/C3=[N+](CCOCCOCCC(=O)O)c4ccccc4C3(C)C)=C2Cl)C(C)(C)c2ccccc21 [Example 68, 1-(2-(2-(2-carboxyethoxy)ethoxy)ethyl)-2-((E)-2-((E)-2-chloro-3-(2-((E)-1-(2-(2-methoxyethoxy)ethyl)-3,3-dimethylindolin-2-ylidene)ethenyl)cyclohex-1-en-1-yl)ethenyl)-3,3-dimethyl-3H-indol-1-ium 2,2,2-trifluoroacetate] | 2.5 | > 10000 nM | 890 nM | > 250 µg/mL | 796 nm | 2.74 |  | 
COCCOCCOCCOCCN1/C(=C/C=C2\CCCC(/C=C/C3=[N+](CCOCCOCCC(=O)O)c4ccccc4C3(C)C)=C2Cl)C(C)(C)c2ccccc21 [Example 73, 1-(2-(2-(2-carboxyethoxy)ethoxy)ethyl)-2-((E)-2-((E)-2-chloro-3-(2-((E)-3,3-dimethyl-1-(2,5,8,11-tetraoxatridecan-13-yl)indolin-2-ylidene)ethenyl)cyclohex-1-en-1-yl)ethenyl)-3,3-dimethyl-3H-indol-1-ium Chloride] | 2.7 | > 10000 nM | 1660 nM | > 250 µg/mL | 796.5 nm | 2.15 |  | 
CC[N+]1=C(/C=C/C2=C(Cl)C(=C/C=C3/N(CCCCCC(=O)Oc4ccccc4)c4ccccc4C3(C)C)/CCC2)C(C)(C)c2ccccc21.[Cl-] [Comparative Example 1, 2-((E)-2-((E)-2-chloro-3-(2-((E)-3,3-dimethyl-1-(6-oxo-6-phenoxyhexyl)indolin-2-ylidene)ethenyl)cyclohex-1-en-1-yl)ethenyl)-1-ethyl-3,3-dimethyl-3H-indol-1-ium Chloride, reference compound] | 2.4 | 2700 nM | < 120 nM | 5 µg/mL | 794.5 nm | 2.16 |  | 
